Laboratory results as given in US20040097454A1, “Method for modulation of cell phenotype” (University Technology Corporation, priority 1999, published 2004).

What was measured:
[1] = system: bovine aorta smooth muscle cells (BASMC); experiment: BASMC morphology and α SM actin content on PKA inhibition; assay type: cell-based
Description: To confirm literature reports of the importance of cAMP for the smooth muscle cell (SMC) phenotype, bovine aorta smooth muscle cells (BASMC) were examined for changes in morphology and migration upon modulation of PKA activity. These cells are from a single vascular bed and harvested from an ingrown strain of cattle. BASMC are an established model of vascular smooth muscle tissue in culture (Cucina et al., 1999, J. Surg. Res., 82:61-66; Frid et al., 1997, Circ. Res., 81:940-952; Frid et al., Arterioscler Throb Vasc Biol 17:1203-1209,1997; Hatzi et al., 1999, Eur. J. Biochem., 260:825-832; Stenmark et al., Chest 114:82S-90S, 1998; Takahashi et al., Circ Res 84:543-550, 1999; Underwood et al., 1998, J. Vasc. Res., 35:449-460), and are useful for assessing vascular smooth muscle cell proliferation, migration and contraction. […] Specifically, H89 results in loss of SMC “spindle shape” representative of differentiated, contractile phenotype.

[2] = system: CREB-dependent promoter transactivation in BASMC; experiment: CREB-dependent Gal4-TKluc reporter in BASMC; assay type: cell-based, bovine; settings: for CREB-dependent promoter transactivation: insulin 100 nM, glucose 25 mM
Method: Isoproterenol is well documented to act through cAMP, yet no studies defining its impact on CREB transactivation in SMCs have been reported. In the next experiment, the ability of ISO to drive a CREB dependent reporter construct was determined. BASMC were transfected with Gal4-TKluc plasmid containing the Gal4 promoter and a thymidine kinase enhancer upstream of the gene encoding a luciferase reporter. These cells were cotransfected with control plasmid (pUC19), a plasmid encoding the Gal4 protein alone, or plasmids encoding chimeric Gal4 proteins with either wild type CRF-B (pZI-Gal4-TKluc) or Ser 133 mutated CREB (SeYI33). […] Of note, basal PKA mediated CRE reporter transcription is very high in these cells and is blocked by the PKA inhibitor H89.

[3] = system: P-CREB/CREB in BASMC; experiment: Acute CREB phosphorylation in BASMC; assay type: cell-based, bovine; settings: acute treatment, confluent BASMC serum starved 48 hours
Method: A series of experiments was performed to determine the ability of insulin, IGF-1 and ISO to acutely enhance CREB phosphorylation in BASMC. BASMC were grown to confluence, ss for 48 hours, and acutely treated with insulin, IGF-1, or Iso in the concentrations noted in FIG. 12A-12C.

[4] = system: BASMC migration; experiment: SMC migration, Boyden chamber; assay type: cell-based, bovine; settings: high glucose 25 mM vs 5 mM, 48 h
Method: BASMC were grown to 70% confluence and serum starved for 48 hours. Cells were then treated with 0.1 uM PDGF and assessed for thymidine incorporation (FIG. 10A) and migration (FIG. 10B) as follows. […] Migratory behavior of SMC cells was assessed using a 12 well micro-Boyden chamber apparatus (Transwell Apparatus, Costar, Corning, N.Y.). […] Wells were covered with a Type I collagen-coated PVP-free filter with 8 mm pores (Transwell Apparatus, Costar, Corning, N.Y.). Trypsinized cells were resuspended in serum-free medium containing either chemotactic compounds or vehicle, and plated at a density of 25,000 or 50,000 cells per well in a volume of 100 μL. At the end of the incubation, cells attached to the filter were fixed and stained in Dif Quick (American flospital Supply Corp., McGraw Park, Ill.).

[5] = system: CREB in BASMC; experiment: CREB content and phosphorylation in BASMC exposed to high glucose or high insulin; assay type: cell-based, bovine; settings: 72 hours exposure
Method: Studies were undertaken in BASMC to examine the impact of high glucose (HG) and/or high insulin (HI) on CREB and ICER content. BASMC were grown to confluence, ss for 24 hours, then treated with the concentrations of insulin and/or glucose.

[6] = system: ICER in BASMC; experiment: ICER protein and mRNA content in BASMC exposed to glucose and insulin; assay type: cell-based, bovine; settings: for ICER protein content: 72 hour; for ICER mRNA: glucose (5 and 25 mM) and insulin (3 and 100 nM), 72 h
Method: Next, BASMCs were exposed to either 3 nM or 100 nM insulin for 72 hours and analyzed for mRNA content of ICER. ICER protein was induced by physiological doses of glucose and insulin. […] BASMC were cultured to 90% confluence and treated with glucose (5 and 25 mM) and insulin ([…]) for 72 h. Total RNA was isolated from these cells using Qiagen's RNeasy kit. RNA samples were fractionated on denaturing 1.2% agarose-formaldehyde gels and transferred to Hybond N+ membrane. ICER IIγ CDNA probe was labeled with thermostable alkaline phosphatase using the AlkPhos-Direct kit from Amersham Lifesciences (Buckinghamshire, England). Hybridization, washing and detection by CDP-Star were performed according to manufacturer's protocol.

[7] = system: NIH 3T3-L1 preadipocyte cell lines; experiment: Adipocyte differentiation assay, Oil Red O staining of triacylglycerol; assay type: cell-based
Method: Differentiation assays were performed on cells growing on 8 chamber microscope slides. […] The cells were treated with a differentiation mixture, muristerone, or both. […] Muristerone was added to medium at a final concentration of 10 uM for the entire 10 day differentiation period. After 10 days in culture, the cells were stained with Oil Red 0 to visualize triacylglycerol vesicles as previously described (Klemm et al., 1998, J. Biol. Chem., 273:917-923), and counterstained with hematoxylin to visualize cell morphology. Cells were observed by brightfield microscopy and representative fields, were photographed.

[8] = system: putative CRE sequences of adipocyte-specific gene promoters; experiment: Gel retardation assay of recombinant CREB with putative CRE oligonucleotides; assay type: binding; settings: twenty base pair double stranded 32P-labeled oligonucleotides
Method: Next, the ability of purified, recombinant CREB to bind double stranded oligonucleotide probes of these sequences in gel retardation assays was tested as previously described in Klemm et al., 1998, J. Biol. Chem., 273:917-923. Twenty base pair, double stranded nucleotides, end labeled with y32P-ATP and polynucleotide kinase, were incubated with purified, recombinant 30 CREB protein. The reactions were separated on nondenaturing, 6% polyacrylamide gels and exposed to Kodak X-ARomat film. […] In these experiments, 5 ug of nuclear extract protein prepared from 3T3-L1 fibroblasts was incubated with the indicated, labeled oligonucleotides either in the absence (−) or presence (+) of CREB specific antibody. The reactions were separated on polyacrylamide gels as described above and exposed to film. […] Obviously, CREB may not bind to some of the tested sequences in the context of their native promoter environment or under conditions found within the cell. Alternately, CREB may interact with the putative CRE sites we have tested in the PPARγ2 and CEBP α promoters under different conditions, or perhaps bind to other sequences in these promoters not identified by visual inspection.

[9] = system: BASMC; experiment: Cell cycle phase by fluorescence flow cytometry (Krishan's stain) in BASMC with inducible WT CREB; assay type: cell-based, bovine; settings: muristerone-induced expression; 0.1 or 10% serum
Method: BASMC were stably transfected with the muristerone-inducible wild-type CREB (WT CREB) expression vector. They were then exposed to serum at 0.1 or 10% with and with exposure to muristerone to induce CREB expression. FIGS. 8A-8D show control cells on the left and muristerone cells on the right. Cells were incubated with Krishan's stain and subjected to fluorescence flow cytometry to assess proliferative capacity to determine phase in the cell cycle. […] This peak was smaller in the cells incubated in low serum. […] The stably transfected clone served as its own control. Preliminary studies were next undertaken to investigate the impact of adenoviral infection with constitutively active CREB (adVP16 CREB) on CRE driven gene expression, proliferation, and migration.

Question: With O=S(=O)(NCCNC/C=C/c1ccc(Br)cc1)c1cccc2cnccc12 [H89] as the compound, how does the “α SM actin content” value ([1]; 0-10 uM, 72 hours) read?
Answer: decreased α SM actin content

Question: And the cellular morphology ([1]; 10 uM, 4, 8 and 24 hours, relative to untreated control)?
Answer: significant alterations in cellular morphology

Question: What about the “basal PKA mediated CRE reporter transcription” value [2] of the same compound?
Answer: blocked

Question: And the “endogenous CREB kinase activity (Gal4-CREB reporter)” value ([2]; PKA inhibitor treatment)?
Answer: attenuates high endogenous CREB kinase activity

Question: For CC(C)NCC(O)c1ccc(O)c(O)c1 (centres unmarked) [Iso, Isoproterenol], which P-CREB/CREB content [3] is on record?
Answer: acutely increases P-CREB/CREB content

Question: Which “cell migration in Boyden Chamber” value [4] does the source give for OC[C@H]1OC(O)[C@H](O)[C@@H](O)[C@@H]1O (some centres unmarked) [glucose] here?
Answer: increased cell migration

Question: What about the “CREB phosphorylation (PCREB)” value [5] of the same compound?
Answer: delayed increases in PCREB

Question: What about the “change in CREB protein content” value [5] of the same compound?
Answer: −32%

Question: What about the ICER protein content [6] of the same compound?
Answer: induced ICER protein

Question: What about the “ICER mRNA” value [6] of the same compound?
Answer: increase in ICER mRNA

Question: What about the CREB-dependent promoter transactivation [2] of the same compound?
Answer: attenuates this activity

Question: For CC(C)CC[C@@H](O)[C@](C)(O)[C@H]1CC[C@@]2(O)C3=CC(=O)[C@]4(O)C[C@@H](O)[C@@H](O)C[C@]4(C)[C@H]3[C@H](O)C[C@]12C [muristerone, reference compound], which “triacylglycerol accumulation (Oil Red O) in control cells” value ([7]; control cells (pVgRXR, pIND-LacZ), 10 uM muristerone alone, 10 days) is on record?
Answer: No triacylglycerol accumulation

Question: IGF-1: insulin growth factor I was tested. Which P-CREB/CREB content [3] did it give?
Answer: acutely increases P-CREB/CREB content

Question: “Recombinant CREB: purified, recombinant CREB protein” was tested. Which “binding to promoter probes of PEPCK, FABP, FAS, SCD and CEBP genes” value [8] did it give?
Answer: able to bind

Question: How did the cell cycle phase [9] turn out when “WT CREB: wild-type CREB expressed from muristerone-inducible vector or adenovirus” was run?
Answer: cell cycle arrest

Question: How did the “triacylglycerol accumulation in VP16-CREB-expressing cells” value ([7]; muristerone induced cells also treated with insulin, versus muristerone alone) turn out when insulin: insulin; high insulin (HI) was run?
Answer: triacylglycerol accumulation was enhanced

Question: And the “CREB phosphorylation (PCREB)” value [5]?
Answer: increased CREB phosphorylation

Question: And the “change in CREB protein content” value [5]?
Answer: −24%

Question: And the ICER protein content [6]?
Answer: decreased ICER content

Question: And the “ICER mRNA” value [6]?
Answer: increase in ICER mRNA

Question: And the P-CREB/CREB content [3]?
Answer: acutely increases P-CREB/CREB content

Question: And the “transcriptional activation of CREB in presence of H89” value ([2]; PKA inhibited with H89)?
Answer: clear dose-dependent transcriptional activation of CREB

Question: What about the CREB-dependent promoter transactivation [2] of the same compound?
Answer: increases CREB-dependent promoter transactivation
